Test system: TFEB
Assay: TFEB nuclear translocation assay, HeLa wt cells
Assay type: cell-based
Details: Homo sapiens, HeLa, 2 h, 2 hrs compound treatment, Table 1 does not say HeLa wt or TRPML1 KO
Outline: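 AC50 derived from the ratio of nuclear to perinuclear ring (−5 μm) anti-TFEB immunofluorescence, imaged at ×20 over four fields per well. HeLa wt or TRPML1 KO cells were exposed to compounds for 2 hrs at 37° C, then PFA-fixed and counterstained with Hoechst.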

| Structure (SMILES) | AC50 |
| --- | --- |
| COCC1(C)CCN(c2ccccc2NS(=O)(=O)c2cc(C3OCCO3)cs2)CC1 [Compound A-619, 4-(1,3-dioxolan-2-yl)-N-{2-[4-(methoxymethyl)-4-methylpiperidin-1-yl]phenyl}thiophene-2-sulfonamide] | 2010 to 8000 nM |
| COc1ccc(S(=O)(=O)Nc2ccccc2N2CCC(N(C)c3ccc(F)cc3F)CC2)cc1 [Compound A-189, N-(2-{4-[(2,4-difluorophenyl)(methyl)amino]piperidin-1-yl}phenyl)-4-methoxybenzene-1-sulfonamide] | ≤ 2000 nM |
| COCC1(C)CCN(c2ccccc2NS(=O)(=O)c2ccc3c(c2)OC(C)(C)C3)CC1 [Compound A-738, N-{2-[4-(methoxymethyl)-4-methylpiperidin-1-yl]phenyl}-2,2-dimethyl-2,3-dihydro-1-benzofuran-6-sulfonamide] | ≤ 2000 nM |
| COCC1(C)CCN(c2ccccc2NS(=O)(=O)Cc2cccc(C#N)c2)CC1 [Compound A-581, 1-(3-cyanophenyl)-N-{2-[4-(methoxymethyl)-4-methylpiperidin-1-yl]phenyl}methanesulfonamide] | 2010 to 8000 nM |
| CN(C)S(=O)(=O)c1ccc(S(=O)(=O)Nc2ccccc2N2CCC(C(F)F)CC2)cc1 [Compound A-585, N4-{2-[4-(difluoromethyl)piperidin-1-yl]phenyl}-N1,N1-dimethylbenzene-1,4-disulfonamide] | ≤ 2000 nM |
| O=S(=O)(Nc1ccccc1N1CCC(c2ccc(Cl)cc2F)CC1)c1c(F)cccc1F [Compound A-81, N-{2-[4-(4-chloro-2-fluorophenyl)piperidin-1-yl]phenyl}-2,6-difluorobenzene-1-sulfonamide] | ≥ 10000 nM |
| CC1(C)CC2(CCN(c3ccccc3NS(=O)(=O)c3ccn(C4CC4(F)F)n3)CC2)CO1 (centres unmarked) [Compound A-689, 1-(2,2-difluorocyclopropyl)-N-(2-{3,3-dimethyl-2-oxa-8-azaspiro[4.5]decan-8-yl}phenyl)-1H-pyrazole-3-sulfonamide] | ≥ 10000 nM |
| CC1(C)CC2(CCN(c3ccccc3NS(=O)(=O)c3ccc(C4CC4)s3)CC2)CO1 [Compound A-674, 5-cyclopropyl-N-(2-{3,3-dimethyl-2-oxa-8-azaspiro[4.5]decan-8-yl}phenyl)thiophene-2-sulfonamide] | ≤ 2000 nM |
| CC(=O)N1CCC(S(=O)(=O)Nc2ccccc2N2CCN(c3ccc(Cl)cc3F)CC2)CC1 [Compound A-17, 1-acetyl-N-{2-[4-(4-chloro-2-fluorophenyl)piperazin-1-yl]phenyl}piperidine-4-sulfonamide] | 2010 to 8000 nM |
| CC(c1cccc(F)c1N1CCC(COC(C)(C)C)CC1)S(=O)(=O)c1ccc(C(F)F)cc1 (single isomer, unassigned) [Compound A-976, 4-(tert-butoxymethyl)-1-(2-(1-((4-(difluoromethyl)phenyl)sulfonyl)ethyl)-6-fluorophenyl)piperidine] | ≤ 2000 nM |
| CC(C)(C)C(=O)N1CCN(c2ccccc2NS(=O)(=O)c2ccc(CC(F)(F)F)cc2)CC1 [Compound A-567, N-{2-[4-(2,2-dimethylpropanoyl)piperazin-1-yl]phenyl}-4-(2,2,2-trifluoroethyl)benzene-1-sulfonamide] | ≥ 10000 nM |
| CCOC1(C)CCN(c2ccccc2NS(=O)(=O)c2ccc(S(=O)(=O)N(C)C)cc2)CC1 [Compound A-523, N4-[2-(4-ethoxy-4-methylpiperidin-1-yl)phenyl]-N1,N1-dimethylbenzene-1,4-disulfonamide] | ≤ 2000 nM |
| CN(C)S(=O)(=O)c1ccc(S(=O)(=O)Nc2ccccc2N2CCC(C(C)(C)C)CC2)cc1 [Compound A-353, N4-[2-(4-tert-butylpiperidin-1-yl)phenyl]-N1,N1-dimethylbenzene-1,4-disulfonamide] | ≤ 2000 nM |
| CN1C(=O)C2(CCN(c3ccccc3NS(=O)(=O)c3ccc(S(=O)(=O)N(C)C)cc3)CC2)c2cccnc21 [Compound A-282, N1,N1-dimethyl-N4-(2-{1′-methyl-2′-oxo-1′,2′-dihydrospiro[piperidine-4,3′-pyrrolo[2,3-b]pyridin]-1-yl}phenyl)benzene-1,4-disulfonamide] | 2010 to 8000 nM |

— patent publication US20230104936A1, “TRPML MODULATORS” (Casma Therapeutics, Inc., priority 2019, published 2023)
